In EP2057185B1, “POLYMYXIN DERIVATIVES AND USES THEREOF” (Northern Antibiotics Oy, priority 2006, dated 2008):
Bridge positions count the residues as written; N and C are the ends. Square brackets hold non-standard residues; d marks the D form. Peptide text beside a SMILES is read from it. * marks the point of attachment. Octanoyl = CCCCCCCC(=O)*; Dab = NCC[C@H](N)C(=O)O; Abu = CC[C@H](N)C(=O)O

Columns and labels:
E. cloacae CCUG52947 = experiment: MIC by E-strips on Mueller-Hinton agar with or without NAB7061 (4 µg/ml); assay type: cell-based, Enterobacter cloacae
Experimental: (§1) MICs were determined by using E-strips (Biodisk Ltd., Solna, Sweden) according to the manufacturer's instructions.
(§2) The strains originated from ATCC (11 strains), CCUG (11 strains), and NCTC (The National Collection of Type Cultures, Colindale, U.K.; 2 strains). Eight strains (the F-strains) were purchased from Mobidiag Ltd., Helsinki, Finland.

E. cloacae F230 = experiment: as above; assay type: cell-based, Enterobacter cloacae
Experimental: as §1, §2

E. cloacae F232 = experiment: as above; assay type: cell-based, Enterobacter cloacae
Experimental: as §1, §2

[1] = tested on: carbapenem-resistant strains (F263, F264); experiment: E-strip MIC of carbapenems, summary over resistant strains; assay type: cell-based, Acinetobacter baumannii; settings: NAB7061 4 µg/ml
Experimental: as §1

E. coli IH3080 (O18:K1) = experiment: Synergistic bactericidal activity with guinea pig serum (complement); assay type: cell-based, Escherichia coli; settings: none (PBS)
S. aureus ATCC 25923 = experiment: Growth inhibition around wells on LB agar plates; assay type: cell-based, Staphylococcus aureus; settings: growth inhibition area around well
Experimental: From an overnight-grown culture of IH3080 on LB agar, a suspension of approx. 10^8 cells/ml was prepared in 0.9% NaCl. Aliquots of this suspension were then pipetted on the agar plates and the plates were gently shaken to spread the suspension evenly on the entire surface of the plate. Thereafter, the unabsorbed part of the suspension was removed by using a Pasteur pipette. After the surface had dried, small wells (diameter, 2 mm) were drilled on the plates (five wells per plate) by using a sterile sharp-edged narrow metal tube, single-use pipette tip, and vacuum suction. Samples (4 µl and 10 µl) of the peptide solution in 0.9% NaCl (at concentrations of 1 µg/ml and 0.1 µg/ml) were then pipetted to the wells and the sample fluids were allowed to absorb. Controls included 0.9% NaCl solution without the compound to be tested. The plates were then incubated for 18 h at 37°C whereafter the diameters of growth inhibition zones around each well were measured; the diameter of the well itself was […]. Finally, the diameters were converted to surface areas of growth inhibition (in square mm).
The susceptibility of eleven Gram-negative bacterial strains (nine different species) to NAB734 and polymyxin B was compared by using the susceptibility determination method described in Example 2. […]

Compound	MIC (µg/ml) of clarithromycin in the presence of 4 µg/ml of NAB 7061 (E. cloacae CCUG52947)	MIC (µg/ml) of rifampin in the presence of 4 µg/ml of NAB 7061 (E. cloacae CCUG52947)	Sensitization factor to clarithromycin (E. cloacae CCUG52947; 4 µg/ml of NAB 7061)	Sensitization factor to rifampin (E. cloacae CCUG52947; 4 µg/ml of NAB 7061)	MIC (µg/ml) of clarithromycin in the presence of 4 µg/ml of NAB 7061 (E. cloacae F230)	MIC (µg/ml) of rifampin in the presence of 4 µg/ml of NAB 7061 (E. cloacae F230)	Sensitization factor to clarithromycin (E. cloacae F230; 4 µg/ml of NAB 7061)	Sensitization factor to rifampin (E. cloacae F230; 4 µg/ml of NAB 7061)	MIC (µg/ml) of clarithromycin in the presence of 4 µg/ml of NAB 7061 (E. cloacae F232)	MIC (µg/ml) of rifampin in the presence of 4 µg/ml of NAB 7061 (E. cloacae F232)	Sensitization factor to clarithromycin (E. cloacae F232; 4 µg/ml of NAB 7061)	Sensitization factor to rifampin (E. cloacae F232; 4 µg/ml of NAB 7061)	sensitization factor to both carbapenems (imipenem, meropenem) [1]	% survival after 2-hour treatment at 37°C (E. coli IH3080 (O18:K1); NAB7061 1 µg/ml) [%]	% survival after 2-hour treatment at 37°C (E. coli IH3080 (O18:K1); NAB7061 2 µg/ml) [%]	% survival after 2-hour treatment at 37°C (E. coli IH3080 (O18:K1); NAB7061 4 µg/ml) [%]	Antibacterial activity 4 µg (S. aureus ATCC 25923; 4 µg) [square millimeters]	Antibacterial activity 10 µg (S. aureus ATCC 25923; 10 µg) [square millimeters]
CCCCCCCC(=O)N[C@H](C(=O)N[C@@H](CC)C(=O)N[C@H]1CCNC(=O)[C@H]([C@@H](C)O)NC(=O)[C@H](CCN)NC(=O)[C@H](CCN)NC(=O)[C@H](CC(C)C)NC(=O)[C@@H](Cc2ccccc2)NC(=O)[C@H](CCN)NC1=O)[C@@H](C)O [NAB 7061, OA-Thr-Abu-cy[Dab-Dab-DPhe-Leu-Dab-Dab-Thr-]] (Octanoyl-T[Abu][Dab][Dab][dF]L[Dab][Dab]T; lactam 3-C)	[…]	[…]	[…]	[…]	[…]	[…]	[…]	[…]	[…]	[…]	[…]	[…]	≥ 4	97	97	79	–	–
Polymyxin B	–	–	–	–	–	–	–	–	–	–	–	–	–	–	–	–	0	0
